We go through 4 compounds from ChEMBL document CHEMBL2086390, “Design, synthesis and structure-activity relationships of novel benzoxazolone derivatives as 18 kDa translocator protein (TSPO) ligands” (Bioorg Med Chem, 2012).

Data set [1] is described as follows: Aqueous solubility of the compound at pH 7.4. As to conditions: aqueous solution. Format: physicochemical.
The nature of data set [2]: Aqueous solubility of the compound at pH 2.5. Format: physicochemical. The settings on record: aqueous solution.
The test system of another data set is Rattus norvegicus. As to the kind of experiment: AUC in rat at 1 mg/kg, iv. The settings on record: in vivo. Also noted: dose 1 mg/kg, route intravenous. Format: ADME, organism-based, Plasma.
Data set [3] in a line: Cmax in rat at 10 mg/kg, po. Format: ADME, organism-based. Also noted: dose 10 mg/kg, route oral. As to conditions: in vivo.
Data set [4] in a line: Tmax in rat at 10 mg/kg, po. It counts as ADME, organism-based. The settings on record: in vivo. Also noted: dose 10 mg/kg, route oral.
Data set [5] in a line: AUC in rat at 10 mg/kg, po. It counts as ADME, organism-based. On the set-up: dose 10 mg/kg, route oral. The settings on record: plasma.
A short description of data set [6]: Oral bioavailability in rat at 10 mg/kg. It counts as ADME, organism-based. The settings on record: in vivo.
Data set [7] can be described thus: Ratio of AUC in brain to AUC in plasma of rat at 10 mg/kg, po. The settings on record: brain and plasma. It counts as ADME, organism-based. On the set-up: dose 10 mg/kg, route oral.
Data set [8] in a line: Volume of distribution at steady state in rat at 1 mg/kg, iv. It counts as ADME, organism-based. Also noted: dose 1 mg/kg, route intravenous. The settings on record: in vivo, read-out: Vdss.

Values after ≈ are worked out from the molar mass of the structure shown.

As for `CN(C(=O)Cn1c(=O)oc2ccc(-c3ccccc3)cc21)c1cccnc1`, the concentration in solution in data set [1] (solubility) came to 45 µg/mL (≈ 125 µM).

On to `CN(C(=O)Cn1c(=O)oc2ccc(-c3ccccc3)cc21)c1ccccc1`, for which, in data set [1], the solubility was less than 1 µg/mL.

In data set [2], `CN(C(=O)Cn1c(=O)oc2ccc(-c3cccnc3)cc21)c1ccccc1` displayed a solubility of 440 µg/mL (≈ 1220 µM).

With `CN(C(=O)Cn1c(=O)oc2ccc(-c3cccnc3)cc21)c1ccccc1.Cl`, the AUC amounted to 6042 ng·h/mL with Rattus norvegicus and 8370 ng·h/mL in data set [5]. In [3], this compound showed a Cmax of 50.4 ng/mL. In data set [4], the Tmax was 1 h. Moreover, the bioavailability in data set [6] is 13.9%. Besides, in data set [7], the Kp came out at 0.63. The Vd in data set [8] was 4.4 L/kg.
